In publication PMC12303080, “Diverse actions of 15 structurally unrelated mitochondrial uncouplers in cells and mice” (Molecular Metabolism, 2025):
Where two headings read alike, the source gives them in different places. One block for each compound: values may come before it.

How the values were obtained:
humans = details: cited from earlier work
Swiss mice = tested on: Swiss mice; design: method as in PMID 18505478; details: ∼30–105 μg/kg/day in drinking water; cited from earlier work
CHO–K1 cells [1] = assay: OCR in the absence or presence of oligomycin (Supplementary Fig. 6); assay type: cell-based, Cricetulus griseus; details: 1 μM oligomycin, uncoupler at lowest concentration yielding MaxOCR
Description: ATP synthase is the major conduit through which protons re-enter the mitochondrial matrix. Thus, we sought to investigate whether the selected uncouplers could stimulate oxygen consumption in the presence of the ATP synthase inhibitor oligomycin.
Supplementary Figure 6. […] At ~24 minutes, 1 μM of oligomycin or vehicle was injected, followed by the injection of the indicated uncoupler or vehicle at ~44 minutes, and 0.5 μM Rotenone / Antimycin A at ~88 minutes.

CHO–K1 cells [2] = assay: Seahorse XF-96 OCR dose response of 15 uncouplers (Figure 2); assay type: cell-based, Cricetulus griseus; details: for EC50: mean OCR (% basal) over first 24 min post injection, ± standard error, four-parameter fit
Description: Stock solutions of the uncouplers and/or Rotenone/Antimycin A were diluted in Seahorse media to give the final concentration indicated in Figure 1, Figure 2, Figure 3 with 0.4% (v/v) DMSO in wells.

[3] = Drug exposure / pharmacokinetics after oral gavage; details: male, C57BL/6J, mouse, plasma, 10 mg/kg
[4] = tested on: Arabidopsis thaliana cells; design: method as in PMID 22006339; details: cited from earlier work
db/db mice = assay: Four-week treatment by admixture in chow, metabolic phenotyping; details: 4 weeks
Description: Body weight and glucose tolerance of male db/+ and db/db mice was assessed at 8–9 weeks of age to obtain baseline measurements. Db/+ were used as lean metabolically healthy controls and given ad libitum access to chow diet. Db/db mice were stratified into 12 groups using R (V4.4.0).
Mice were on treatment for a period of four weeks, during which body weight and food intake were measured daily. […] To counter this, food traps were placed beneath hoppers and leftover food in both the traps and hoppers was weighed daily. HbA1c was measured weekly. At the end of the treatment period, a glucose tolerance test was conducted, with fed and fasted bloods collected. At termination, blood was collected via cardiac puncture under isoflurane anaesthesia. Mice were euthanised by cervical dislocation and harvested tissues were flash-frozen in liquid nitrogen and stored at −80 °C.
Mice were fasted for 6 h and then received intraperitoneal injections of 20% (w/v) dextrose at a dose of 1 g/kg lean body mass. Blood glucose (BG) was measured at the time of fasting (random-fed BG) and then again prior to the commencement of the GTT following the 6-hour daytime fast (fasted BG). […] The rate of glucose clearance was measured using the trapezoidal method for calculation of area under the curve.
HbA1c was measured once weekly using an A1cNow + Portable HbA1c Test Kit. […] HbA1c was measured in the random-fed state.
A glucose tolerance test was conducted at the end of the treatment period, with random fed and 6-hour fasted bloods collected. Blood was collected in heparin tubes and kept on ice prior to centrifugation at 2000×g for 10 min at 4 °C to extract plasma. Plasma insulin concentration was determined using the Crystal Chem Ultra-Sensitive Mouse Insulin ELISA kit, according to manufacturers' instructions for the high range (1–64 ng/mL) assay.

Compound: O=[N+]([O-])c1ccc(O)c([N+](=O)[O-])c1 [DNP, 2,4-Dinitrophenol]
Body weight lost per week (humans): 1.5 kg
Weight loss (humans): ≤ 1.5 kg/week
Increase in metabolic rate (humans; for every 100 mg ingested): 11%
Lifespan extension (Swiss mice): 7%
Effect of oligomycin on uncoupler-stimulated OCR (CHO–K1 cells [1]): largely unaffected by the presence of oligomycin
MaxOCR lower than that seen with BAM15 (CHO–K1 cells [2]; CHO–K1, Figure 2): ~27%
EC50 (CHO–K1 cells [2]; Cricetulus griseus, CHO-K1, 0.4 h, read-out: EC50 (increase of OCR), CHO–K1): 17 ± 1.18 µM
EC50 (CHO–K1 cells [2]; read-out: EC50 (increase of OCR), CHO–K1): 17 µM

Cmax [3]: 72.3 µM
Compound: O=[N+]([O-])c1ccc(NS(=O)(=O)c2ccc(Br)s2)cc1 [ES9, Endosidin 9]
Concentration increasing respiration (as low as) [4]: Endosidin 9 (ES9) • ES9 has not been tested in mouse models of metabolic disease. It was identified in a chemical library screen for inhibitors of endomembrane trafficking and increased respiration in Arabidopsis thaliana cells at concentrations as low as 1 μM [71].
Effect of oligomycin on uncoupler-stimulated OCR (CHO–K1 cells [1]): largely unaffected by the presence of oligomycin
Gastrocnemius weight vs control (db/db mice; 0.015% in chow): significantly larger gastrocnemius
Gastrocnemius weight vs control (db/db mice; 0.03% in chow): significantly larger gastrocnemius
Increase of total liver cholesterol content vs db/db control (db/db mice; 0.03% in chow): ~1.7 fold
Post-treatment GTT AUC lower than control group (db/db mice; 0.03% in chow): ~35%
Body weight / weight gain vs db/db controls (db/db mice; 0.15% BAM15, 0.02% OPC-163493, 0.015% and 0.03% ES9, NTZ and NEN both doses): non-significant trend for increased weight gain
GTT ΔAUC (post minus pre-treatment) (db/db mice; 0.15% and 0.2% BAM15, printed 0.3% ES9): statistically significant protection from worsening glucose tolerance
Blood glucose, HbA1c, glucose tolerance vs control (db/db mice; NEN both doses, 0.01% OPC, 0.015% ES9, 0.2% NTZ): did not have significantly lower random-fed or 6-hour fasted blood glucose
HbA1c (db/db mice; both doses of BAM15, printed 0.3% ES9, 0.4% NTZ): lowered HbA1c levels
Fasting and random fed blood glucose (db/db mice; either dose of BAM15, high dose ES9, high dose NTZ): partial efficacy
Increase of liver triglyceride concentration vs db/db controls (db/db mice; high dose ES9 (0.03%)): ~2.7 fold
Increase of total liver triglyceride content vs db/db controls (db/db mice; high dose ES9 (0.03%)): ~3.4 fold
Liver triglyceride concentration vs db/db controls (db/db mice; lower dose ES9 (0.015%)): significantly increased liver triglyceride concentration
Increase in liver wet weight vs db/db control (db/db mice; printed 0.3% ES9 in chow): ~25%
EC50 (CHO–K1 cells [2]; CHO–K1, read-out: EC50 (increase of OCR)): 1.6 µM
Concentration range with sustained enhanced OCR (OCR ≥ 150% basal) (CHO–K1 cells [2]; CHO–K1, tested 0.32–200 μM): ≤ 100 µM
EC50 (CHO–K1 cells [2]; Cricetulus griseus, CHO-K1, 0.4 h, CHO–K1, read-out: EC50 (increase of OCR)): 1.61 ± 0.41 µM
